Reference: patent publication US20240279202A1 (NURIX THERAPEUTICS, INC., priority 2021, published 2024)

Biological target: T1, ITK (Homo sapiens, UniProt Q08881)
T1 sequence (Q08881 1-620): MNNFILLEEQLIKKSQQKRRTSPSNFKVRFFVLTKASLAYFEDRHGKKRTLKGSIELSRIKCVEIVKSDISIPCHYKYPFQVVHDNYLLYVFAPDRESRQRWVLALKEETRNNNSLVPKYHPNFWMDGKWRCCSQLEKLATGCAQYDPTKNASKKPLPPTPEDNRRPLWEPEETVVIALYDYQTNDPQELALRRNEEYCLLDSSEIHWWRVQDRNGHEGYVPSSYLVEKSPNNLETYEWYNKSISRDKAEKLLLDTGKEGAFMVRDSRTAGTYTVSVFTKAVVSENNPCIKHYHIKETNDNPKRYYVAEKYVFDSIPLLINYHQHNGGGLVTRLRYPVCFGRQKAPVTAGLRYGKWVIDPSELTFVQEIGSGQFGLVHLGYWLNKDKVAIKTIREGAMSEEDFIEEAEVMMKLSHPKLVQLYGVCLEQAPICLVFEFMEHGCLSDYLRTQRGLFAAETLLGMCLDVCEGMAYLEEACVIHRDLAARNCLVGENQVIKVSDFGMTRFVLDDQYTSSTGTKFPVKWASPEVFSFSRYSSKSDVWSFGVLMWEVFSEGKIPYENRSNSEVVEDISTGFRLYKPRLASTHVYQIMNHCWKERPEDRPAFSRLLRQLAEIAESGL
Assay: ITK degradation HiBiT assay
Format: cell-based
Parameters: expressed in transfected cells; host or cells: Molt4 (ATCC CRL-1552), monoclonal clone 1C10, engineered to carry the HiBiT tag
Conditions: 4 hrs; for Dmax: MOLT-4, C-terminal HiBiT-tagged Molt4 cells
How it was run: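 C-terminal HiBiT-tagged Molt4 cells (clone 1C10) treated 4 h at 32° C with an 11-point, 5-fold compound dilution series (0.5% DMSO). HiBiT lytic detection with LgBiT then luminescence read; % ITK remaining versus concentration fit by four-parameter variable-slope model to give DC50 and Dmax.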

[1] = C-terminal HiBiT-tagged Molt4 cells

| Dmax [%] | DC50 [1] [pM] | HiBiT DMax (%) [1] [%] | Structure (SMILES) |
| --- | --- | --- | --- |
| 83 |  |  | C[C@@H]1CN(C(=O)c2ccc3cc(-c4n[nH]c5c4C[C@@H]4C(F)(F)[C@]4(C)C5)[nH]c3c2)CCN1CC1CCN(c2ccc(C3CCC(=O)NC3=O)c(F)c2)CC1 (stereo partly shown) [Compound 160] |
| 83 | 3400 |  | C[C@@]12Cc3[nH]nc(C(=O)Nc4cnn([C@@H]5CCN(CC6CCN(c7ccc(C(=O)N[C@H]8CCC(=O)NC8=O)nc7)CC6)C[C@H]5F)c4)c3C[C@@H]1C2(F)F [Compound 94, (4aS,5aR)-N-(1-((3R,4R)-1-((1-(6-(((S)-2,6-dioxopiperidin-3-yl)carbamoyl)pyridin-3-yl)piperidin-4-yl)methyl)-3-fluoropiperidin-4-yl)-1H-pyrazol-4-yl)-5,5-difluoro-5a-methyl-1,4,4a,5,5a,6-hexahydrocyclopropa[f]indazole-3-carboxamide] |
| 88 |  |  | C[C@@]12Cc3[nH]nc(C(=O)Nc4cnn(C5CCN(C(=O)C6CCC(Oc7ccc(C8CCC(=O)NC8=O)cn7)CC6)CC5)c4)c3C[C@@H]1C2(F)F (mixture of isomers) [Compound 168] |
| 89 | < 10 |  | C[C@@]12Cc3[nH]nc(C(=O)Nc4cnn(C5CCN(CC6CCN(c7ccc(C8CCC(=O)NC8=O)cc7)CC6)CC5)c4)c3C[C@@H]1C2(F)F (stereo partly drawn) [Compound 92, (4aS,5aR)-N-(1-(1-((1-(4-(2,6-dioxopiperidin-3-yl)phenyl)piperidin-4-yl)methyl)piperidin-4-yl)-1H-pyrazol-4-yl)-5,5-difluoro-5a-methyl-1,4,4a,5,5a,6-hexahydrocyclopropa[f]indazole-3-carboxamide] |
| 84 |  |  | COC[C@@]1(C)CCc2c(-c3cc4ccc(C(=O)N5CCN(CC6CCN(c7ccc(C8CCC(=O)NC8=O)cc7)CC6)CC5)cc4[nH]3)n[nH]c2C1 (stereo partly shown) [Compound 140] |
|  | 900 | 89 | C[C@@]12Cc3[nH]nc(C(=O)Nc4cnn(C5CCN(CC6CCN(c7ccc([C@@H]8CCC(=O)NC8=O)cc7)CC6)CC5)c4)c3C[C@@H]1C2(F)F [Compound 116, (4aS,5aR)-N-(1-{1-[(1-{4-[(3S)-2,6-dioxopiperidin-3-yl]phenyl}piperidin-4-yl)methyl]piperidin-4-yl}-1H-pyrazol-4-yl)-5,5-difluoro-5a-methyl-1H,4H,4aH,5H,5aH,6H-cyclopropa[f]indazole-3-carboxamide] |
| 84 |  |  | C[C@@H]1CN(C(=O)c2ccc3cc(-c4n[nH]c5c4CCC(C)(C)C5)[nH]c3c2)C[C@H](C)N1CC1CCN(c2ccc(C3CCC(=O)NC3=O)cc2)CC1 (stereo partly shown) [Compound 157] |
| 92 | 7800 |  | CC1(C)CCc2c(-c3cc4ccc(N5CCC6(CCN(Cc7ccc8c(c7)C(=O)N(C7CCC(=O)NC7=O)C8=O)CC6)C5=O)cc4[nH]3)n[nH]c2C1 (stereo not shown) [Compound 8, 5-((2-(2-(6,6-dimethyl-4,5,6,7-tetrahydro-1H-indazol-3-yl)-1H-indol-6-yl)-1-oxo-2,8-diazaspiro[4.5]decan-8-yl)methyl)-2-(2,6-dioxopiperidin-3-yl)isoindoline-1,3-dione] |
| 70 |  |  | C[C@@]12Cc3[nH]nc(C(=O)Nc4cnn(CC5CCN(CC6CCN(C(=O)c7ccc(F)c(N8CCC(=O)NC8=O)c7)CC6)CC5)c4)c3C[C@@H]1C2(F)F [Compound 204] |
| 90 | 600 |  | C[C@@]12Cc3[nH]nc(C(=O)Nc4cnn([C@H]5CCN(CC6CCN(c7ccc([C@H]8CCC(=O)NC8=O)cc7)CC6)C[C@@H]5F)c4)c3C[C@@H]1C2(F)F (single isomer, unassigned) [Compound 95] |
| 84 |  |  | C[C@@H]1CN(C(=O)c2ccc3cc(-c4n[nH]c5c4CCC(C)(C)C5)[nH]c3c2)CCN1CC1CCN(c2ccc(C3CCC(=O)NC3=O)cc2)CC1 (stereo partly shown) [Compound 156] |
| 80 | 3 |  | CN(CC1CCN(C(=O)c2ccc3cc(-c4n[nH]c5c4CCC(C)(C)C5)[nH]c3c2)CC1)C1CCN(c2ccc(C3CCC(=O)NC3=O)cn2)CC1 (stereo not shown) [Compound 63, 3-(6-(4-(((1-(2-(6,6-dimethyl-4,5,6,7-tetrahydro-1H-indazol-3-yl)-1H-indole-6-carbonyl)piperidin-4-yl)methyl)(methyl)amino)piperidin-1-yl)pyridin-3-yl)piperidine-2,6-dione] |
| 81 |  |  | CC1(C)CCc2c(-c3cc4ccc(C(=O)N5CCN(CC6CCN(c7ncc(C8CCC(=O)NC8=O)cc7F)CC6)CC5)cc4[nH]3)n[nH]c2C1 (stereo not shown) [Compound 183] |
| 72 | 2 |  | CN(c1ccc(C2CCC(=O)NC2=O)cn1)C1CCN(CC2CCN(C(=O)c3ccc4cc(-c5n[nH]c6c5CCC(C)(C)C6)[nH]c4c3)CC2)CC1 (stereo not shown) [Compound 62, 3-(6-((1-((1-(2-(6,6-dimethyl-4,5,6,7-tetrahydro-1H-indazol-3-yl)-1H-indole-6-carbonyl)piperidin-4-yl)methyl)piperidin-4-yl)(methyl)amino)pyridin-3-yl)piperidine-2,6-dione] |
| 80 |  |  | C[C@H]1CN(C(=O)c2ccc3cc(-c4n[nH]c5c4C[C@@H]4C(F)(F)[C@]4(C)C5)[nH]c3c2)CCN1CC1CCN(c2ccc(C3CCC(=O)NC3=O)cc2)CC1 (mixture of isomers) [Compound 153] |
|  | 11000 |  | CC1(C)CCc2c(-c3cc4ccc(C(=O)N5CCC(CC6CCN(c7ccc(C8CCC(=O)NC8=O)cn7)CC6)CC5)cc4[nH]3)n[nH]c2C1 (stereo not shown) [Compound 54, 3-(6-(4-((1-(2-(6,6-dimethyl-4,5,6,7-tetrahydro-1H-indazol-3-yl)-1H-indole-6-carbonyl)piperidin-4-yl)methyl)piperidin-1-yl)pyridin-3-yl)piperidine-2,6-dione] |
| 88 | 1700 |  | C[C@@]12Cc3[nH]nc(C(=O)Nc4ccc(C5CCN(CC6CCN(c7ccc(C8CCC(=O)NC8=O)cc7)CC6)CC5)nc4)c3C[C@@H]1C2(F)F (stereo partly drawn) [Compound 110, (4aS,5aR)-N-(6-(1-((1-(4-(2,6-dioxopiperidin-3-yl)phenyl)piperidin-4-yl)methyl)piperidin-4-yl)pyridin-3-yl)-5,5-difluoro-5a-methyl-1,4,4a,5,5a,6-hexahydrocyclopropa[f]indazole-3-carboxamide] |
| 75 |  |  | C[C@@]12Cc3[nH]nc(C(=O)Nc4cnn(CC5CCN(C(=O)C6CCN(c7ccc(N8CCC(=O)NC8=O)cc7)CC6)CC5)c4)c3C[C@@H]1C2(F)F [Compound 172] |
| 84 | 500 |  | C[C@H]1CN(C(=O)c2ccc3cc(-c4n[nH]c5c4CCC(C)(C)C5)[nH]c3c2)CCN1CC1CCN(c2ccc(C3CCC(=O)NC3=O)cn2)CC1 (stereo partly drawn) [Compound 131, 3-(6-(4-(((S)-4-(2-(6,6-dimethyl-4,5,6,7-tetrahydro-1H-indazol-3-yl)-1H-indole-6-carbonyl)-2-methylpiperazin-1-yl)methyl)piperidin-1-yl)pyridin-3-yl)piperidine-2,6-dione] |
